The values that follow come from patent US6656951B2, “8-aza-bicyclo[3.2.1]octan-3-ol derivatives of 2,3-dihydro-1,4-benzodioxan as 5-HT1A antagonists” (Wyeth, priority 2001, dated 2003).

One series concerns the target T1, human 5-HT1A receptor (Homo sapiens, UniProt P08908).
T1 construct: expressed in transfected cells; membranes
T1 sequence (P08908 1-422): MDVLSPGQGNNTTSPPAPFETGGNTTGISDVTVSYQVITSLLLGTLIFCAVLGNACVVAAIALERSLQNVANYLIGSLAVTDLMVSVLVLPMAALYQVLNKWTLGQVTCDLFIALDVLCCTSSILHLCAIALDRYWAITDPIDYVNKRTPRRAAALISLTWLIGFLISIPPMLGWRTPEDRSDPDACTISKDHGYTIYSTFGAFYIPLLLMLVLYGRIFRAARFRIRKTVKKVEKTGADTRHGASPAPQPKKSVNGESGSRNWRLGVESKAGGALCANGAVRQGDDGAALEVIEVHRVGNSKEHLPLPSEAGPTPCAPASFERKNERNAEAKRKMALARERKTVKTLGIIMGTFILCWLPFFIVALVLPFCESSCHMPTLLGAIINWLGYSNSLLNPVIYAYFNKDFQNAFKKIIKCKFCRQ
Kind of series: HC 5-HT1A affinity (radioligand binding, h5-HT1A.CHO cell membranes). The text has this: The 5-HT1A affinity of compounds of this invention was established in accordance with standard pharmaceutically accepted test procedures with representative compounds as follows:
Cloning of Human 5-HT1A Receptor:
The PCR cloning of the human 5-HT1A receptor subtype from a human genomic library has been described previously (Chanda et al., 1993). A stable Chinese hamster ovary cell line expressing the human 5-HT1A receptor subtype (h5-HT1A.CHO cells) was employed throughout this study. Cells were maintained in DMEM supplemented with 10% fetal calf serum, non-essential amino acids and penicillin/streptomycin.
Cells were grown to 95-100% confluency as a monolayer before membranes were harvested for binding studies. Cells were gently scraped from the culture plates, transferred to centrifuge tubes, and washed twice by centrifugation (2000 rpm for 10 min., 4° C.) in buffer (50 mM Tris; pH 7.5). The resulting pellets were aliquoted and placed at −80° C. On the day of assay, the cells were thawed on ice, and resuspended in buffer. Studies were conducted using [^3H]8-OH-DPAT as the radioligand. The binding assay was performed in 96 well microtiter plates in a final total volume of 250 μL of buffer. Competition experiments were performed by using 7 concentrations of unlabelled drug and a final ligand concentration of 1.5 nM. Non-specific binding was determined in the presence of 10 μM 5-HT. Saturation analysis was conducted by using [^3H]8-OH-DPAT at concentrations ranging from 0.3-30 nM. Following a 30 minute incubation at room temperature, the reaction was terminated by the addition of ice cold buffer and rapid filtration using a M-96 Brandel Cell Harvester (Gaithersburg, Md.) through a GF/B filter presoaked for 30 minutes in 0.5% polyethyleneimine. […]

The target of series [1] is T2, cloned human 5-HT1A receptors (Homo sapiens, UniProt P08908).
T2 construct: expressed in transfected cells; membranes
T2 sequence (P08908 1-422): T1 sequence (P08908 1-422)
Kind of series: [35S]-GTPγS binding to assess agonism/antagonism at the 5-HT1A receptor. Format: biochemical. Here is the method:
Assessment of Agonism/Antagonism at the 5-HT1A Receptor Using [^35S]-GTPγS Binding to Cloned Human 5-HT1A Receptors:
The [^35S]-GTPγS binding assay was similar to that used by Lazareno and Birdsall (Br. J. Pharmacol. 1993, 109, 1120). Briefly, 5-HT1A cloned receptor membrane fragments (as used for 5-HT1A receptor binding assays) were stored at −70° C. until needed. When needed, membranes were rapidly thawed, centrifuged at 40,000×g for 10 minutes and resuspended at 4° C. for 10 minutes in assay buffer (25 mM HEPES, 3 mM MgCl2, 100 mM NaCl, 1 mM EDTA, 10 uM GDP, […], pH 8.0). These membranes were then incubated for 30 min at 30° C. with [^35S]GTPgS (1 nM) in the presence of vehicle, test compound (one to eight concentrations), or excess 8-OH-DPAT to define maximum agonist response. All reactions are terminated by the addition of ice cold Tris buffer followed by rapid filtration using a Tom Tech® filtration device to separate bound from free [ ^35S]GTPgS. Agonists produce an increase in the amount of [^35S]GTPgS bound whereas antagonists produce no increase in binding. Bound radioactivity was counted and analyzed as above.
A general note: GTPγS is a poorly hydrolysed GTP analogue; its binding reports G protein activation.

For the next series, the system named is rats. The note with it: delayed nonmatching to sample radial arm maze task; cited from earlier work.
The conditions of series [2]: post-training administration, autoshaping learning task; cited from earlier work.
The conditions of series [3]: two-platform spatial discrimination task; cited from earlier work.
Where [4] appears, read: n=2, membranes of CHO cells expressing human 5-HT1A, read-out: HC 5-HT1A affinity Ki.
Where [5] appears, read: n=1, cloned human 5-HT1A receptor membranes.
The mark [6] stands for this setting: n=1, cloned human 5-HT1A receptor membranes, read-out: [35S]GTPgS IC50.

Counter-ions that a name gives are not always drawn. Like-named read-outs stand apart in the source and are kept apart here.

`CCOc1cccc2c1O[C@@H](CN1C3CCC1CC(O)(c1ccc4ccccc4c1)C3)CO2` (stereo partly drawn) (as salt: oxalate) [Example 1, (S)-8-(8-Ethoxy-2,3-dihydro-benzo[1,4]dioxin-2-ylmethyl)-3-naphthalen-2-yl-8-aza-bicyclo[3.2.1]octan-3-ol]: the melting point (as a rule, the temperature, or range, at which the solid turns liquid) fell in the range of 126 to 129 °C.

On to `CCOc1cccc2c1O[C@@H](CN1C3CCC1CC(O)(c1ccc4ccccc4c1)C3)CO2` (stereo partly drawn) [Example 1, (S)-8-(8-Ethoxy-2,3-dihydro-benzo[1,4]dioxin-2-ylmethyl)-3-naphthalen-2-yl-8-aza-bicyclo[3.2.1]octan-3-ol], for which, at human 5-HT1A receptor (setting [4]), the Ki (commonly a measure of affinity in units of concentration, obtained from inhibition or displacement) worked out at 5.9 nM.

In turn, `CCOc1cccc2c1O[C@@H](CN1C3CCC1CC(O)(c1ccccc1)C3)CO2` (stereo partly drawn) [Example 2, (S)-8-(8-Ethoxy-2,3-dihydro-benzo[1,4]dioxin-2-ylmethyl)-3-phenyl-8-aza-bicyclo[3.2.1]octan-3-ol] showed a melting point of 152 to 155 °C. The Ki at human 5-HT1A receptor (setting [4]) is 3.1 nM.

The molecule `CCOc1cccc2c1O[C@@H](CN1C3CCC1CC(O)(c1csc4ccccc14)C3)CO2` (stereo partly drawn) [Example 3, (S)-3-Benzo[b]thiophen-3-yl-8-(8-ethoxy-2,3-dihydro-benzo[1,4]dioxin-2-ylmethyl)-8-aza-bicyclo[3.2.1]octan-3-ol] registered a melting point of 111 to 114 °C. The inhibition constant (Ki) on human 5-HT1A receptor (setting [4]) amounted to 16.7 nM.

For `CCOc1cccc2c1O[C@@H](CN1C3CCC1CC(O)(c1ccccn1)C3)CO2` (stereo partly drawn) [Example 4, 8-{[(2S)-8-Ethoxy-2,3-dihydro-benzo[1,4]dioxin-2-yl]methyl)-3-pyridin-2-yl-8-aza-bicyclo[3.2.1]octan-3-ol], the melting point lay within 95 to 99 °C. The Ki on human 5-HT1A receptor (setting [4]) was determined as 61.6 nM.

On to `CCOc1cccc2c1O[C@@H](CN1C3CCC1CC(O)(c1cccc(C(F)(F)F)c1)C3)CO2` (stereo partly drawn) [Example 5, 8-{[(2S)-8-Ethoxy-2,3-dihydro-benzo[1,4]dioxin-2-yl]methyl)-3-(3-trifluoromethylphenyl)-8-aza-bicyclo[3.2.1]octan-3-ol], for which the melting point was in the range of 86 to 90 °C. In addition, the Ki at human 5-HT1A receptor (setting [4]) was 2.9 nM.

With `COc1ccccc1C1(O)CC2CCC(C1)N2C[C@H]1COc2cccc(OC)c2O1` (stereo partly drawn) [Example 6, 8-{[(2S)-8-Methoxy-2,3-dihydro-1,4-benzodioxin-2-yl]methyl}-3-(2-methoxyphenyl)-8-azabicyclo[3.2.1]octan-3-ol], the melting point was 176 to 178 °C. The Ki on human 5-HT1A receptor (setting [4]) was determined as 39 nM.

The molecule `COc1cccc2c1O[C@@H](CN1C3CCC1CC(O)(c1cccc(C(F)(F)F)c1)C3)CO2` (stereo partly drawn) [Example 7, 8-{[(2S)-8-Methoxy-2,3-dihydro-1,4-benzodioxin-2-yl]methyl}-3-[3-(trifluoromethyl)phenyl]-8-azabicyclo[3.2.1]octan-3-ol] returned a melting point of 104 to 107 °C. Besides, on human 5-HT1A receptor (setting [4]), the Ki is 0.33 nM.

`COc1cccc2c1O[C@@H](CN1C3CCC1CC(O)(c1ccccn1)C3)CO2` (stereo partly drawn) [Example 8, 8-{[(2S)-8-Methoxy-2,3-dihydro-1,4-benzodioxin-2-yl]methyl}-3-(2-pyridinyl)-8-azabicyclo[3.2.1]octan-3-ol]: the melting point is 107 to 110 °C (dec.). Also, in series [1] (setting [5]), the “[35S]GTPgS Imax” value came out at 100%. Moreover, in series [1] (setting [6]), the IC50 – broadly, the concentration that inhibits the measured activity by half – came to 1480 nM. Also, the Ki on human 5-HT1A receptor (setting [4]) was determined as 46 nM.

The molecule `COc1cccc2c1O[C@@H](CN1C3CCC1CC(O)(c1csc4ccccc14)C3)CO2` (stereo partly drawn) [Example 9, 3-(1-Benzothien-3-yl)-8-{[(2S)-8-methoxy-2,3-dihydro-1,4-benzodioxin-2-yl]methyl}-8-azabicyclo[3.2.1]octan-3-ol] returned a melting point of 162 to 164 °C. Besides, the “[35S]GTPgS Imax” value in series [1] (setting [5]) is 100%. In addition, in series [1] (setting [6]), the IC50 was 36 nM. Also, on human 5-HT1A receptor (setting [4]), the inhibition constant (Ki) worked out at 1.6 nM.

Regarding `COc1cccc2c1O[C@@H](CN1C3CCC1CC(O)(c1ccccc1)C3)CO2` (stereo partly drawn) [Example 10, 8-{[(2S)-8-Methoxy-2,3-dihydro-1,4-benzodioxin-2-yl]methyl}-3-phenyl-8-azabicyclo[3.2.1]octan-3-ol], the melting point fell in the range of 113 to 115 °C. Besides, the IC50 in series [1] came to 25 nM. For the same molecule, the “[35S]GTPgS Imax” value in series [1] (setting [5]) was 100%. Besides, the Ki on human 5-HT1A receptor stood at 1.53 nM.

For the molecule `COc1cccc2c1O[C@@H](CN1C3CCC1CC(O)(c1ccc4ccccc4c1)C3)CO2` (stereo partly drawn) [Example 11], the melting point is 129 to 132 °C. For the same molecule, the half-maximal inhibitory concentration (IC50) in series [1] is 9.9 nM. Besides, the “[35S]GTPgS Imax” value in series [1] (setting [5]) worked out at 100%. The affinity on human 5-HT1A receptor corresponds to a Ki of 0.81 nM.

With `COc1ccccc1N1CCN(CCN(C(=O)C2CCCCC2)c2ccccn2)CC1` [WAY-100635], the “effect on cognitive impairment induced by MK801” value in the series with rats is listed as “significantly reduced the cognitive impairment”. Also, the “effect on learning deficit induced by scopolamine” value in series [2] was “reversed the learning deficit”. For the same molecule, in series [3], the “effect on impairment of spatial learning caused by intrahippocampal injection of CPP” value is recorded as “prevented the impairment of spatial learning”.
